Test results: patent US20100048604A1, “Ligands for Aldoketoreductases” (priority 2004, published 2010)

System: panel of oxidoreductases
Assay: Enzymatic screening of probes 1-7 against a panel of oxidoreductases (enzymes other than 3α-HSDs)
Assay type: biochemical
Details: 12 hour incubation, 30-50 μM substrate, pH 7, 250 μM NAD(P)H
Protocol: FIG. 4. Screening of probes 1-7 against a panel of oxidoreductases Percentage fluorescence increase after 12 hour incubation of 30-50 μM substrate, 100 mM phosphate buffer (pH 7), 250 μM NAD(P)H, and 100 nM enzyme. Substrates 1, 2, 3, and 4 monitored at λexc=340 nm, λem=440 nm. Substrates 5, 6, and 7 monitored at λexc=440 nm, λem=510 nm. 3HSD, 3α-hydroxysteroid dehydrogenase (PT, Pseudomonas testosteroni), HLAD, horse liver alcohol dehydrogenase, TBAD, Thermoanaerobium brockii alcohol dehydrogenase, BS 12HSD, Bacillus sp. 12α-hydroxysteroid dehydrogenase, ABAD, amyloid-β binding alcohol dehydrogenase (human), GDH, glycerol dehydrogenase, YADH, yeast alcohol dehydrogenase, LDH, lactate dehydrogenase.
Probes 1-7 (see FIG. 3) were subsequently tested against a collection of dehydrogenases in the presence of NAD(P)H; the extent of reduction was assessed by the measurement of fluorescence intensity at the emission maximum of each probe (FIG. 4). […]
Initial Screening with Fluorogenic Substrates: Screening of the first fluorogenic substrates for enzymatic activity has been described above. […] Formation of the alcohol reduction product was determined by reading the fluorescence arising from excitation at the corresponding alcohol at either 340 nm (27-30) or 440 nm (31-33).

CC(=O)c1cc(=O)oc2c3c4c(cc12)CCCN4CCC3 [compound 5, 8-Acetyl-2,3,5,6-tetrahydro-1H,4H-11-oxa-3a-aza-benzo[de]anthracen-10-one]
reduction of probe by the other enzymes of the panel: No other enzymes examined in this assay catalyzed the reduction
